Measured values reported in patent US11753404B2, “Aminothiazole compounds as c-Kit inhibitors” (Ariad Pharmaceuticals, Inc., priority 2016, dated 2023).

Key:
Experiment in all cases: c-Kit assay: Ba/F3 KIT mutant cell viability (Cell Titer-Glo, 72 hours)
Type in all cases: cell-based
Details in all cases: viability after 72 hours
[1] = biological target: T1, BAF3 FL KIT EX11DEL/T670I (Homo sapiens, UniProt P10721, T670I, cells depend on it, form not given)
T1 construct: BAF3 FL KIT EX11DEL/T670I
Experimental: (§1) Generation of DBa/F3 KIT Mutant Engineered Cell Lines
(§2) KIT cDNAs were synthesized by GenScript and cloned into the pLVX-IRES-Puro vector (Clontech). Viral particles were produced by transfecting pLVX-IRES-puro vectors containing KIT mutant genes into HEK293 cells (Invitrogen) using the Trans-Lentiviral ORF Packaging Kit (Thermo Scientific). 48 hours post-transfection, virus-containing supernatants were harvested and incubated for another 48-72 hours with parental Ba/F3 cells (DSMZ) in the presence of 10 ng/mL IL-3 (R&D Systems). Transduced Ba/F3 cells were then selected by IL-3 withdrawal and puromycin (0.5-1 μg/mL, Invitrogen).
(§3) Cell lines (e.g., EX11DEL, EX11DEL/D816H, EX11DEL/T670I, and EX11DEL/V654A) were plated into 384 well plates using RPMI 1640 supplemented with 10% FBS at densities that produced linear growth and incubated at 37° C. in 5% (v/v) CO2. Cells were treated with eight concentrations of compound over a 4-fold dilution (10 μM to 0.61 nM) and viability was assessed using Cell Titer-Glo assay (Promega) after 72 hours. Data were plotted as percent viability relative to vehicle-treated cells. Dose-responses curves were generated and used to calculate IC50 values.

[2] = biological target: T2, BAF3 FL KIT EX11DEL (Homo sapiens, UniProt P10721, cells depend on it, form not given)
T2 construct: BAF3 FL KIT EX11DEL
Experimental: as §1, §2, §3

[3] = biological target: T3, BAF3 FL KIT EX11DEL/V654A (Homo sapiens, UniProt P10721, V654A, cells depend on it, form not given)
T3 construct: BAF3 FL KIT EX11DEL/V654A
Experimental: as §1, §2, §3

[4] = biological target: T4, BAF3 FL KIT EX11DEL/D816H (Homo sapiens, UniProt P10721, D816H, cells depend on it, form not given)
T4 construct: BAF3 FL KIT EX11DEL/D816H
Experimental: as §1, §2, §3

T2 sequence (P10721 with tags, fused parts or gaps DEL557-558): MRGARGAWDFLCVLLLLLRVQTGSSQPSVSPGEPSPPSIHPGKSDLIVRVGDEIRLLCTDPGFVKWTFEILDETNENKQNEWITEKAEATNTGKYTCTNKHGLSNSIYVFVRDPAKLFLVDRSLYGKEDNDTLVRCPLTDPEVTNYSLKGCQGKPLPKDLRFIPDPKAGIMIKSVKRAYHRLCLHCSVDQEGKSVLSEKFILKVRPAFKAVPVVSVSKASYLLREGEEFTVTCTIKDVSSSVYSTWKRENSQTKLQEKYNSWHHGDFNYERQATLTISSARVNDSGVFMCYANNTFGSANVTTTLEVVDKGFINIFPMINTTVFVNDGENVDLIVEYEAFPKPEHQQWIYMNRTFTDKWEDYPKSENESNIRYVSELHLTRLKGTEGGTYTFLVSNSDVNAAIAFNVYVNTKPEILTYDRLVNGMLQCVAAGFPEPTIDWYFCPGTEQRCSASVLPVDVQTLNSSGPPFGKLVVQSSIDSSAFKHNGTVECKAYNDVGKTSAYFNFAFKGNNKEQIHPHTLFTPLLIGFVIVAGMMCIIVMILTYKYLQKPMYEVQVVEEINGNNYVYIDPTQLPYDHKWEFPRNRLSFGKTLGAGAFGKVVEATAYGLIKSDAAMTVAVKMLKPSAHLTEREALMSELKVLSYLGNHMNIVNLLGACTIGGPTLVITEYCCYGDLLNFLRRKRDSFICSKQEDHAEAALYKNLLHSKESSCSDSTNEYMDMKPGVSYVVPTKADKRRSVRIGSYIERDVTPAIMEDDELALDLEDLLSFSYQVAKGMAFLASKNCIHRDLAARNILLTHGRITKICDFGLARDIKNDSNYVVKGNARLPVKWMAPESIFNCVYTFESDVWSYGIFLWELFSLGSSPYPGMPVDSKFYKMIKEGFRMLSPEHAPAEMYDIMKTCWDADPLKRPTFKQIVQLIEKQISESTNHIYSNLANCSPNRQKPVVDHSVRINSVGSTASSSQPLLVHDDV
T1 sequence (P10721 with tags, fused parts or gaps DEL557-558/T670I, form open): as the sequence (P10721 with tags, fused parts or gaps DEL557-558) above, with T668I counted along it
T3 sequence (P10721 with tags, fused parts or gaps DEL557-558/V654A, form open): as the sequence (P10721 with tags, fused parts or gaps DEL557-558) above, with V652A counted along it
T4 sequence (P10721 with tags, fused parts or gaps DEL557-558/D816H, form open): as the sequence (P10721 with tags, fused parts or gaps DEL557-558) above, with D814H counted along it

Compound | GI50 [1] [nM] | GI50 [2] [nM] | GI50 [3] [nM] | GI50 [4] [nM]
Cc1ccc(C(=O)Nc2cc(C(F)(F)F)ccn2)cc1C#Cc1cnc(NC(=O)N(C)C2CCC(O)CC2)s1 (stereo not shown) [I-22, 3-((2-(3-(4-hydroxycyclohexyl)-3-methylureido)thiazol-5-yl)ethynyl)-4-methyl-N-(4-(trifluoromethyl)pyridin-2-yl)benzamide] | < 10 | < 10 | < 10 | < 10
Cc1ccc(C(=O)Nc2cc(C(F)(F)F)ccn2)cc1C#Cc1cnc(NC(=O)N2CCN(C)CC2)s1 [I-23, 4-methyl-N-(5-((2-methyl-5-((4-(trifluoromethyl)pyridin-2-yl)carbamoyl)phenyl)ethynyl)thiazol-2-yl)piperazine-1-carboxamide] | < 10 | < 10 | 10 to 50 | 10 to 50
Cc1ccc(C(=O)Nc2cc(C(F)(F)F)ccn2)cc1C#Cc1cnc(NC(=O)N2CC(C)(O)C2)s1 [I-24, 3-hydroxy-3-methyl-N-(5-((2-methyl-5-((4-(trifluoromethyl)pyridin-2-yl)carbamoyl)phenyl)ethynyl)thiazol-2-yl)azetidine-1-carboxamide] | < 10 | < 10 | < 10 | < 10
Cc1ccc(C(=O)Nc2cc(C(F)(F)F)ccn2)cc1C#Cc1cnc(NC(=O)N2CCC(C)CC2)s1 [I-25, 4-methyl-N-(5-((2-methyl-5-((4-(trifluoromethyl)pyridin-2-yl)carbamoyl)phenyl)ethynyl)thiazol-2-yl)piperidine-1-carboxamide] | 10 to 50 | 10 to 50 | 10 to 50 | 10 to 50
Cc1ccc(C(=O)Nc2cc(C(F)(F)F)ccn2)cc1C#Cc1cnc(NC(=O)NCc2ccncc2)s1 [I-26, 4-methyl-3-((2-(3-(pyridin-4-ylmethyl)ureido)thiazol-5-yl)ethynyl)-N-(4-(trifluoromethyl)pyridin-2-yl)benzamide] | 10 to 50 | 10 to 50 | 10 to 50 | 10 to 50
Cc1ccc(C(=O)Nc2cc(C(F)(F)F)ccn2)cc1C#Cc1cnc(NC(=O)N2CCN(CCO)CC2)s1 [I-27, 4-(2-hydroxyethyl)-N-(5-((2-methyl-5-((4-(trifluoromethyl)pyridin-2-yl)carbamoyl)phenyl)ethynyl)thiazol-2-yl)piperazine-1-carboxamide] | < 10 | < 10 | 10 to 50 | 10 to 50
CNCCN(C)C(=O)Nc1ncc(C#Cc2cc(C(=O)Nc3cc(C(F)(F)F)ccn3)ccc2C)s1 [I-28, 4-methyl-3-((2-(3-methyl-3-(2-(methylamino)ethyl)ureido)thiazol-5-yl)ethynyl)-N-(4-(trifluoromethyl)pyridin-2-yl)benzamide] | 10 to 50 | < 10 | 10 to 50 | 10 to 50
Cc1ccc(C(=O)Nc2cc(C(F)(F)F)ccn2)cc1C#Cc1cnc(NC(=O)N(C)C2CCN(C)CC2)s1 [I-29, 4-methyl-3-((2-(3-methyl-3-(1-methylpiperidin-4-yl)ureido)thiazol-5-yl)ethynyl)-N-(4-(trifluoromethyl)pyridin-2-yl)benzamide] | < 10 | < 10 | 10 to 50 | < 10
Cc1ccc(C(=O)Nc2cc(C(F)(F)F)ccn2)cc1C#Cc1cnc(NC(=O)N2CCNCC2)s1 [I-30, N-(5-((2-methyl-5-((4-(trifluoromethyl)pyridin-2-yl)carbamoyl)phenyl)ethynyl)thiazol-2-yl)piperazine-1-carboxamide] | 10 to 50 | < 10 | 10 to 50 | 10 to 50
Cc1ccc(C(=O)Nc2cc(C(F)(F)F)ccn2)cc1C#Cc1cnc(NC(=O)NCCCCN)s1 [I-31, 3-((2-(3-(4-aminobutyl)ureido)thiazol-5-yl)ethynyl)-4-methyl-N-(4-(trifluoromethyl)pyridin-2-yl)benzamide] | 10 to 50 | 10 to 50 | 50 to 100 | 50 to 100
Cc1ccc(C(=O)Nc2cc(C(F)(F)F)ccn2)cc1C#Cc1cnc(NC(=O)N(C)C2CCCN(C)C2)s1 (stereo not shown) [I-32, 4-methyl-3-((2-(3-methyl-3-(1-methylpiperidin-3-yl)ureido)thiazol-5-yl)ethynyl)-N-(4-(trifluoromethyl)pyridin-2-yl)benzamide] | 10 to 50 | < 10 | 10 to 50 | 10 to 50
Cc1ccc(C(=O)Nc2cc(C(F)(F)F)ccn2)cc1C#Cc1cnc(NC(=O)N(C)C2CCC(N)CC2)s1 (stereo not shown) [I-33, 3-((2-(3-(4-aminocyclohexyl)-3-methylureido)thiazol-5-yl)ethynyl)-4-methyl-N-(4-(trifluoromethyl)pyridin-2-yl)benzamide] | 10 to 50 | 10 to 50 | 50 to 100 | 50 to 100
Cc1ccc(C(=O)Nc2cc(C(F)(F)F)ccn2)cc1C#Cc1cnc(NC(=O)N2CCOC(CN(C)C)C2)s1 (stereo not shown) [I-34, 2-((dimethylamino)methyl)-N-(5-((2-methyl-5-((4-(trifluoromethyl)pyridin-2-yl)carbamoyl)phenyl)ethynyl)thiazol-2-yl)morpholine-4-carboxamide] | 10 to 50 | < 10 | 10 to 50 | 10 to 50
Cc1ccc(C(=O)Nc2cc(C(F)(F)F)ccn2)cc1C#Cc1cnc(NC(=O)N2CCOCC2)s1 [I-35, N-(5-((2-methyl-5-((4-(trifluoromethyl)pyridin-2-yl)carbamoyl)phenyl)ethynyl)thiazol-2-yl)morpholine-4-carboxamide] | < 10 | < 10 | 10 to 50 | < 10
Cc1ccc(C(=O)Nc2cc(C(F)(F)F)ccn2)cc1C#Cc1cnc(NC(=O)NCCCN)s1 [I-36, 3-((2-(3-(3-aminopropyl)ureido)thiazol-5-yl)ethynyl)-4-methyl-N-(4-(trifluoromethyl)pyridin-2-yl)benzamide] | 10 to 50 | < 10 | 10 to 50 | 10 to 50
CC(=O)N1CCN(C(=O)Nc2ncc(C#Cc3cc(C(=O)Nc4cc(C(F)(F)F)ccn4)ccc3C)s2)CC1 [I-37, 4-acetyl-N-(5-((2-methyl-5-((4-(trifluoromethyl)pyridin-2-yl)carbamoyl)phenyl)ethynyl)thiazol-2-yl)piperazine-1-carboxamide] | < 10 | < 10 | < 10 | < 10
Cc1ccc(C(=O)Nc2cc(C(F)(F)F)ccn2)cc1C#Cc1cnc(NC(=O)NCCN)s1 [I-38, 3-((2-(3-(2-aminoethyl)ureido)thiazol-5-yl)ethynyl)-4-methyl-N-(4-(trifluoromethyl)pyridin-2-yl)benzamide] | 50 to 100 | < 10 | 50 to 100 | 50 to 100
Cc1ccc(C(=O)Nc2cc(C(F)(F)F)ccn2)cc1C#Cc1cnc(NC(=O)N(C)C2CN(C)C2)s1 [I-39, 4-methyl-3-((2-(3-methyl-3-(1-methylazetidin-3-yl)ureido)thiazol-5-yl)ethynyl)-N-(4-(trifluoromethyl)pyridin-2-yl)benzamide] | 100 to 10000 | 10 to 50 | 100 to 10000 | 100 to 10000
Cc1ccc(C(=O)Nc2cc(C(F)(F)F)ccn2)cc1C#Cc1cnc(NC(=O)N2CCC(N(C)C)C2)s1 (stereo not shown) [I-40, 3-(dimethylamino)-N-(5-((2-methyl-5-((4-(trifluoromethyl)pyridin-2-yl)carbamoyl)phenyl)ethynyl)thiazol-2-yl)pyrrolidine-1-carboxamide] | < 10 | < 10 | 10 to 50 | 10 to 50
Cc1ccc(C(=O)Nc2cc(C(F)(F)F)ccn2)cc1C#Cc1cnc(NC(=O)N2CCC(N3CCN(C)CC3)CC2)s1 [I-41, N-(5-((2-methyl-5-((4-(trifluoromethyl)pyridin-2-yl)carbamoyl)phenyl)ethynyl)thiazol-2-yl)-4-(4-methylpiperazin-1-yl)piperidine-1-carboxamide] | 10 to 50 | < 10 | 10 to 50 | 10 to 50
CNC(=O)Nc1ncc(C#Cc2ccc(F)c(C(=O)Nc3cc(C(F)(F)F)ccn3)c2)s1 [I-42, 2-fluoro-5-((2-(3-methylureido)thiazol-5-yl)ethynyl)-N-(4-(trifluoromethyl)pyridin-2-yl)benzamide] | 100 to 10000 | < 10 | 100 to 10000 | 100 to 10000
NC(=O)Nc1ncc(C#Cc2ccc(F)c(C(=O)Nc3cc(C(F)(F)F)ccn3)c2)s1 [I-43, 2-fluoro-N-(4-(trifluoromethyl)pyridin-2-yl)-5-((2-ureidothiazol-5-yl)ethynyl)benzamide] | 100 to 10000 | < 10 | 100 to 10000 | 100 to 10000
